From article PMC12213745, “Compounds from Cyclocarya paliurus leaves inhibit binary division of methicillin-resistant Staphylococcus aureus by disrupting FtsZ dynamic” (Frontiers in Microbiology, 2025)
Several values for one entry are separate records, joined by “and”; a condition that tells them apart may be missing. Identical values can stand only once. Like-named read-outs stand apart in the source and are kept apart here.

Tests used:
SaFtsZ = molecular target: T1, SaFtsZ (Staphylococcus aureus, UniProt P0A031); experiment: Surface plasmon resonance analysis; assay type: binding, S. aureus; conditions: SPR, immobilized SaFtsZ, 25°C, steady-state
T1 construct: purchased Cytoskeleton, Inc. FTZ02
T1 sequence (P0A031 1-390): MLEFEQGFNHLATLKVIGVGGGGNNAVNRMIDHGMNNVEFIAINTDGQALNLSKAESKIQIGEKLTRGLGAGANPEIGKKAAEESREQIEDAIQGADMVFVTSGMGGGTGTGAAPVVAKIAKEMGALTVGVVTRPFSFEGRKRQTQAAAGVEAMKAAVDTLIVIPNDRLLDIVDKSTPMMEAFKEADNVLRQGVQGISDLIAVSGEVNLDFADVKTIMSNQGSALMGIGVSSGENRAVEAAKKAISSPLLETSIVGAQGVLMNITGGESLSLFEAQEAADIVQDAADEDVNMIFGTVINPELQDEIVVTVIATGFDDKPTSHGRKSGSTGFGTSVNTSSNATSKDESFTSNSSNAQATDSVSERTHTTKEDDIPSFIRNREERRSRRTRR
Protocol: SPR analysis was performed using a Biacore X100 system (Cytiva, USA) equipped with a CM5 sensor chip at 25°C. SaFtsZ protein was immobilized onto the chip surface via standard amine coupling. Briefly, flow cells 1 (Fc1) and 2 (Fc2) were activated with a 1:1 mixture of 0.4 M EDC and 0.1 M NHS for 7 min. The SaFtsZ protein was diluted to 40 μg/mL in 0.1 M sodium acetate buffer (pH 4.0) and immobilized onto Fc2. The response units (RU) reaching an immobilization level of approximately 4693.2. Unreacted sites in both flow cells were blocked with ethanolamine for 7 min. Subsequently, analyte solutions containing test compounds at varying concentrations were injected over both flow cells, and binding responses were monitored in real time. Data analysis was performed using Biacore Evaluation Software v2.0.2.
We first performed SPR spectroscopy to experimentally measure the binding affinities of AA, MA, and UA for immobilized SaFtsZ protein.

MRSA-4 = experiment: MRSA skin infection model; assay type: in vivo, BALB/c mice
Protocol: All animal experiments were conducted in accordance with the NIH Guide for the Care and Use of Laboratory Animals and the institutional guidelines of West China Hospital, Sichuan University. The study was approved by the Institutional Animal Care and Use Committee (HX20220224085). Female BALB/c mice (6–8 weeks old) were obtained from Chengdu DOSSY Experimental Animal Co., Ltd. (Chengdu, China) and randomly assigned to five groups (n = 6 per group). On day 0, mice were subcutaneously inoculated with 2 × 10^8 CFUs of MRSA-4 suspended in 50 μL of sterile PBS. Treatment commenced 24 h post-infection. Mice received once daily subcutaneous injections at the site of infection for four consecutive days with either AA (0.2, 0.4, or 0.8 mg/kg), vancomycin (0.8 mg/kg, positive control), or PBS (negative control). Lesion progression was monitored daily by photographing the infected area, and wound sizes were quantified using ImageJ software (Version 1.42q, NIH, USA). On day 5 post-infection, mice were anesthetized and euthanized. The whole lesioned skin tissues were aseptically excised, homogenized in 1 mL of sterile PBS, and serially diluted. Aliquots were plated on LB agar and incubated at 37°C overnight to determine bacterial burdens.
Building on its rapid bactericidal activity in vitro and unique FtsZ-binding profile, we next evaluated the in vivo therapeutic efficacy of AA using a murine skin infection model. The model was established in BALB/c mice by subcutaneous inoculation with 2 × 10^8 CFU of MRSA-4 (Figure 7A). Treatment began 24 h post-infection and consisted of daily subcutaneous injections at the infection site for four consecutive days with AA (0.2, 0.4, or 0.8 mg/kg), vancomycin (at 0.8 mg/kg; positive control), or PBS (negative control). Therapeutic outcomes were assessed on day 5 post-infection by quantifying bacterial burden, visually monitoring wound healing, and measuring abscess size.

[1] = 0.8 mg/kg s.c. once daily for 4 days, day 5, vs PBS
[2] = read-out: equilibrium dissociation constant (Kd)

Structure (SMILES) | Kd (SaFtsZ; equilibrium dissociation constant (Kd)) [µM] | wound healing (visual inspection) (MRSA-4; 0.8 mg/kg s.c. once daily for 4 days) | abscess size (MRSA-4; [1]) | bacterial load in infected skin tissues (MRSA-4; [1]) | bacterial load in infected skin tissues (MRSA-4; 0.2 and 0.4 mg/kg s.c. once daily for 4 days, day 5, vs PBS) | wound healing (visual inspection) (MRSA-4; low-dose (0.2 and 0.4 mg/kg) s.c. once daily for 4 days) | Kd (SaFtsZ; [2])
C[C@H]1[C@H](C)CC[C@]2(C(=O)O)CC[C@]3(C)C(=CC[C@@H]4[C@@]5(C)C[C@@H](O)[C@H](O)[C@@](C)(CO)[C@@H]5CC[C@]43C)[C@H]12 [AA, asiatic acid] | 2.4 | substantial amelioration of symptoms | significantly reduced abscess dimensions | significantly reduced bacterial counts | modest but dose-responsive decreases in bacterial load | moderate, dose-dependent improvements in wound appearance | 
CC1(C)CC[C@]2(C(=O)O)CC[C@]3(C)C(=CC[C@@H]4[C@@]5(C)C[C@@H](O)[C@H](O)C(C)(C)[C@@H]5CC[C@]43C)[C@@H]2C1 [MA, maslinic acid] |  |  |  |  |  |  | 9.8 µM and 9.76 µM
C[C@H]1[C@H](C)CC[C@]2(C(=O)O)CC[C@]3(C)C(=CC[C@@H]4[C@@]5(C)CC[C@H](O)C(C)(C)[C@@H]5CC[C@]43C)[C@H]12 [UA, ursolic acid] |  |  |  |  |  |  | 0.7 µM and 0.663 µM
